Activity calls are given as the source filed them. No cut-off for these calls is given here. *1 amine or outer side, *2 acyl side, *3 side chain or, on linkers, in order; H or OH if unused. Where a SMILES comes first, the peptide text is derived from it. [ ]: non-standard residue; d: D form. The star is where a group is joined. GluureaLys(ε-3-ClBenzyl) = O=C(O)CC[C@H](NC(=O)N[C@@H](CCCCN(Cc1cccc(Cl)c1)*)C(=O)O)C(=O)O; Dolaproine = CO[C@@H]([C@@H]1CCCN1)[C@@H](C)C(=O)O; Dil = CC[C@H](C)[C@H](NC)[C@@H](CC(=O)O)OC; X1 = O=C(CCCc1cn(CCCN[*:1])nn1)[*:2]; PABC = O=C(OCc1ccc(N[*:1])cc1)[*:2]; X2 = C[C@@H](N*)[C@@H](O)c1ccccc1; Cit = NC(=O)NCCC[C@H](N)C(=O)O; Suc = O=C(CCC(=O)[*:2])[*:1]; NMeV = CN[C@H](C(=O)O)C(C)C; Ahx = NCCCCCC(=O)O
Key:
[1] = tested on: Salmonella typhimurium; assay: Mutagenecity in Salmonella typhimurium TA100 in presence of metabolic activation system at 10000 ug/ml by Ames test; format: toxicity, organism-based; conditions: salmonella enterica subsp. enterica serovar typhimurium; dose 10000 µg/ml
[2] = tested on: Salmonella typhimurium; assay: Mutagenecity in Salmonella typhimurium TA100 without metabolic activation system at 10 ug/ml by Ames test; format: toxicity, organism-based; conditions: salmonella enterica subsp. enterica serovar typhimurium; dose 10 µg/ml
[3] = tested on: Salmonella typhimurium; assay: Mutagenecity in Salmonella typhimurium TA97 without metabolic activation system at 10 ug/ml by Ames test; format: toxicity, organism-based; conditions: salmonella enterica subsp. enterica serovar typhimurium; dose 10 µg/ml
[4] = tested on: Salmonella typhimurium; assay: Mutagenecity in Salmonella typhimurium TA100 without metabolic activation system at 100 ug/ml by Ames test; format: toxicity, organism-based; conditions: salmonella enterica subsp. enterica serovar typhimurium; dose 100 µg/ml
[5] = Mean residence time in rabbit at 0.81 mg/kg, iv; format: ADME, organism-based, Oryctolagus cuniculus; conditions: in vivo
[6] = tested on: Salmonella typhimurium; assay: Mutagenecity in Salmonella typhimurium TA98 in presence of metabolic activation system at 10000 ug/ml by Ames test; format: toxicity, organism-based; conditions: salmonella enterica subsp. enterica serovar typhimurium; dose 10000 µg/ml
[7] = tested on: CWR22R; assay: Induction of intracellular reactive oxygen species production in human 22Rv1 cells incubated for 1 hr measured at CC50 concentration by amperometric method; format: functional, cell-based
[8] = Chronic toxicity in rat assessed as change in acidity at […], iv administered once every 3 weeks for 3 months; format: organism-based; conditions: in vivo, 504 h, dose lower 150 mg/kg
[9] = molecular target: T1, Cytochrome P450 2C19 (Homo sapiens, UniProt P33261); assay: Inhibition of CYP2C19 in human liver microsome using mephenytoin as substrate; format: ADME, microsomes
[10] = Toxicity in rat assessed as morphological changes in peritoneum at 150 to 225 microg/kg, iv; format: tissue-based; conditions: in vivo, dose 150-225 µg/kg
[11] = Chronic toxicity in rat assessed as mortality rate at 10 microg/kg, iv dosed measured after 3 days; format: organism-based; conditions: in vivo, 0.01 mg/kg, dose 10 µg/kg, time 3 day, read-out: Activity
[12] = Toxicity in rat assessed as morphological changes in spleen at 150 to 225 microg/kg, iv; format: tissue-based; conditions: in vivo, dose 150-225 µg/kg
[13] = Toxicity in rabbit assessed as change in body weight at 0.3 mg/kg, iv measured after 20 days; format: organism-based, Oryctolagus cuniculus; conditions: in vivo, 480 h, time 20 day
[14] = tested on: Salmonella typhimurium; assay: Mutagenecity in Salmonella typhimurium TA98 in presence of metabolic activation system at 100 ug/ml by Ames test; format: toxicity, organism-based; conditions: salmonella enterica subsp. enterica serovar typhimurium; dose 100 µg/ml
[15] = Toxicity in rabbit assessed as pathological change in leydig cells in testes at 81 to 122 microg/kg, iv; format: cell-based, Oryctolagus cuniculus; conditions: in vivo, dose 81-122 µg/kg
[16] = tested on: PC-3; assay: Induction morphological changes in human PC-3 cells assessed as decrease in cell membrane stiffness measured upto 1 hr; format: functional, cell-based; conditions: time hrs <=1
[17] = Toxicity in rabbit assessed as morphological changes in brain sulcus at 81 to 122 microg/kg, iv; format: tissue-based, Oryctolagus cuniculus; conditions: in vivo, dose 81-122 µg/kg
[18] = organism: Oryctolagus cuniculus; assay: Induction of morphological change in heart of rabbit; format: organism-based; conditions: in vivo
[19] = Stability of compound in pH 7.4 assessed as hydrolysis measured within 96 hrs; format: physicochemical; conditions: buffer, pH 7.4, 96 h
[20] = Toxicity in rabbit assessed as morphological changes in lungs at 81 to 122 microg/kg, iv; set-up: species or system Oryctolagus cuniculus; conditions: in vivo, dose 81-122 µg/kg
[21] = AUC (0 to infinity) in Wistar rat at 1.5 mg/kg, iv; format: ADME, organism-based; set-up: time infinity, route intravenous, dose 1.5 mg/kg; conditions: in vivo
[22] = Toxicity in rat assessed as morphological changes in pancreas at 150 to 225 microg/kg, iv; format: tissue-based; conditions: in vivo, dose 150-225 µg/kg
[23] = Ratio of AUC (t to infinity) to AUC (0 to infinity) in rabbit plasma at 0.81 mg/kg, iv; format: ADME, organism-based, Oryctolagus cuniculus; conditions: in vivo
[24] = molecular target: Cytochrome P450 2C9 (Homo sapiens, UniProt P11712); assay: Drug metabolism assessed as human liver microsome CYP2C9-mediatd metabolism; format: ADME; conditions: microsomes
[25] = Toxicity in rat assessed as morphological changes in adrenal medulla at 150 to 225 microg/kg, iv; conditions: in vivo, dose 150-225 µg/kg
[26] = molecular target: Cytochrome P450 3A4 (Homo sapiens, UniProt P08684); assay: Inhibition of CYP3A4 in human liver microsome using midazolam as substrate; format: ADME, microsomes
[27] = Toxicity in rabbit assessed as morphological changes in brain gyrus at 81 to 122 microg/kg, iv; format: tissue-based, Oryctolagus cuniculus; conditions: in vivo, dose 81-122 µg/kg
[28] = Mean residence time (0 to t) in Wistar rat at 1.5 mg/kg, iv; format: ADME, organism-based; conditions: in vivo
[29] = molecular target: T1, Cytochrome P450 2C19; assay: Drug metabolism assessed as human liver microsome CYP2C19-mediatd metabolism; format: ADME; conditions: microsomes
[30] = Half life in Wistar rat at 1.5 mg/kg, iv; format: ADME, organism-based; conditions: in vivo
[31] = Toxicity in rat assessed as morphological changes in lungs at 150 to 225 microg/kg, iv; conditions: in vivo, dose 150-225 µg/kg
[32] = Toxicity in rat assessed as morphological changes in brain ventricle at 150 to 225 microg/kg, iv; format: tissue-based; conditions: in vivo, dose 150-225 µg/kg
[33] = tested on: PC-3; assay: Cytotoxicity against human PC-3 cells not expressing PMSA measured using MTT assay; format: functional
[34] = tested on: Salmonella typhimurium; assay: Mutagenecity in Salmonella typhimurium TA97 without metabolic activation system at 100 ug/ml by Ames test; format: toxicity, organism-based; conditions: salmonella enterica subsp. enterica serovar typhimurium; dose 100 µg/ml
[35] = Stability of the compound in mouse liver microsome; format: ADME; conditions: microsomes
[36] = Initial plasma concentration in rabbit plasma at 0.81 mg/kg, iv; format: ADME, organism-based, Oryctolagus cuniculus
[37] = Toxicity in rabbit assessed as traumatic vein injury at 81 to 122 microg/kg, iv; format: tissue-based, Oryctolagus cuniculus; conditions: in vivo, dose 81-122 µg/kg
[38] = Toxicity in rabbit assessed as thrombosis at 81 to 122 microg/kg, iv; set-up: species or system Oryctolagus cuniculus; conditions: in vivo, dose 81-122 µg/kg
[39] = Stability of compound in pH 5.5 assessed as hydrolysis measured within 96 hrs; format: physicochemical; conditions: buffer, pH 5.5, 96 h
[40] = Toxicity in rabbit assessed as morphological changes in diameter of aorta at 81 to 122 microg/kg, iv; format: tissue-based, Oryctolagus cuniculus; conditions: in vivo, dose 81-122 µg/kg
[41] = tested on: Salmonella typhimurium; assay: Mutagenecity in Salmonella typhimurium TA97 in presence of metabolic activation system at 1 ug/ml by Ames test; format: toxicity, organism-based; conditions: salmonella enterica subsp. enterica serovar typhimurium; dose 1 µg/ml
[42] = molecular target: T2, Cytochrome P450 2B6 (Homo sapiens, UniProt P20813); assay: Drug metabolism assessed as human liver microsome CYP2B6-mediatd metabolism; format: ADME; conditions: microsomes
T2 sequence (P20813 whole entry): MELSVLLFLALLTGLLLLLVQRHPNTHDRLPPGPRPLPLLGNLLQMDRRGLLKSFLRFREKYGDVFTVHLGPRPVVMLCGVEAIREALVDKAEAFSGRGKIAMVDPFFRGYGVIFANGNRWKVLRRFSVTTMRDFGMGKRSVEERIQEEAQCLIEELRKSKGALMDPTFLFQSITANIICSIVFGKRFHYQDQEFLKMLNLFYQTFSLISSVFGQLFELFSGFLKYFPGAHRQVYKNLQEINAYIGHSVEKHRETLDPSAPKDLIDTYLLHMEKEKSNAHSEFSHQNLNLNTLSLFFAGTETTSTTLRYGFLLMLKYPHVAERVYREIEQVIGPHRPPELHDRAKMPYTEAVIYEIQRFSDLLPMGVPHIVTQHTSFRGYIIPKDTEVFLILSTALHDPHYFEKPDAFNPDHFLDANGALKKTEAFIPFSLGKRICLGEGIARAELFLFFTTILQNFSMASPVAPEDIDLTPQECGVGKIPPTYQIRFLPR

T1 sequence (P33261 whole entry): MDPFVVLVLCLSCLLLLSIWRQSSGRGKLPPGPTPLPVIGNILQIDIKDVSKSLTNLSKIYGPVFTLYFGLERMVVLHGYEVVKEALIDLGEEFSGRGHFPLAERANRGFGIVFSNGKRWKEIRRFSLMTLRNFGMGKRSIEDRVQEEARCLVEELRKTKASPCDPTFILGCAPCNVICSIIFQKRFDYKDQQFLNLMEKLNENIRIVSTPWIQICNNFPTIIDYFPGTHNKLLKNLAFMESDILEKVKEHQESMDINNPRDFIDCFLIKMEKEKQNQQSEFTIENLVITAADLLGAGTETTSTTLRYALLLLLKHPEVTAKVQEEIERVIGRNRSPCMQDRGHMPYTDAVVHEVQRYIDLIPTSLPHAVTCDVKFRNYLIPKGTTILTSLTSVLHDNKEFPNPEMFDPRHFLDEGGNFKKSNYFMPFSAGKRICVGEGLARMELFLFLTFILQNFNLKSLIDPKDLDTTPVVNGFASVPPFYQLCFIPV
Sequence of Cytochrome P450 3A4 (P08684 whole entry): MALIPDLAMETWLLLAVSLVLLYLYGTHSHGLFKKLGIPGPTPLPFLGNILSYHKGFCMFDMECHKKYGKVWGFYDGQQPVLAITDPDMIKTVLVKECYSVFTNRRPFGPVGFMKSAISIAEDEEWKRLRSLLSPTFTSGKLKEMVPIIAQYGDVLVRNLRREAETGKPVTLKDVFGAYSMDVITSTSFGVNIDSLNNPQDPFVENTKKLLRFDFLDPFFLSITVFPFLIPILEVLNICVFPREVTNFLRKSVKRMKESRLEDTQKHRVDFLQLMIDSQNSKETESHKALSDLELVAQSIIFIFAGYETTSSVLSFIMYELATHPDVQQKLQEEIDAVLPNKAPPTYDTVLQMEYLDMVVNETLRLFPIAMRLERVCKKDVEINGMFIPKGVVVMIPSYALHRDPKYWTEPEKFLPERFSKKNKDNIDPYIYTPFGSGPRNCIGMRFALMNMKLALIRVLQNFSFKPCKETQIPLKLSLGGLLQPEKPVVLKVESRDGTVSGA
Sequence of Cytochrome P450 2C9 (P11712 whole entry): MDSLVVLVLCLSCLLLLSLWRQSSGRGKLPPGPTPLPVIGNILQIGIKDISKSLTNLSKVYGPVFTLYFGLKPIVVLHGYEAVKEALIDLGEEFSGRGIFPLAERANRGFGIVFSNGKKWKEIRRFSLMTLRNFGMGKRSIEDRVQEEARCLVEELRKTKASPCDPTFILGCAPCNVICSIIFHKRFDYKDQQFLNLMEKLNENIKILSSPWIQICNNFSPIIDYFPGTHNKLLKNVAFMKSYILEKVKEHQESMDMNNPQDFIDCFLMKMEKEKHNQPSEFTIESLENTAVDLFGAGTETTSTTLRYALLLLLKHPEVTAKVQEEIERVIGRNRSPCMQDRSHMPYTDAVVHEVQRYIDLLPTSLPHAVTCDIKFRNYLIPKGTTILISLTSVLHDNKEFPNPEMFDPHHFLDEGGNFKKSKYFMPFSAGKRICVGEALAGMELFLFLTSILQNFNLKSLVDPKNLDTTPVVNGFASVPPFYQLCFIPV

CC[C@H](C)[C@@H]([C@@H](CC(=O)N1CCC[C@H]1[C@H](OC)[C@@H](C)C(=O)N[C@H](C)[C@@H](O)c1ccccc1)OC)N(C)C(=O)[C@@H](NC(=O)[C@H](C(C)C)N(C)C(=O)OCc1ccc(NC(=O)[C@H](CCCNC(N)=O)NC(=O)[C@@H](NC(=O)CCCc2cn(CCCNC(=O)[C@H](Cc3ccc(O)cc3)NC(=O)[C@H](Cc3ccccc3)NC(=O)CCC(=O)NCCCCCC(=O)N(CCCC[C@H](NC(=O)N[C@@H](CCC(=O)O)C(=O)O)C(=O)O)Cc3cccc(Cl)c3)nn2)C(C)C)cc1)C(C)C ({GluureaLys(ε-3-ClBenzyl)-Ahx-Suc}-FY[X1]V[Cit][PABC][NMeV]V[Dil][Dolaproine]-X2)
Activity [1]: Non-Toxic | Activity [2]: Non-Toxic | Activity [3]: Non-Toxic | Activity [4]: Non-Toxic | MRT [5]: 3.4 h | Activity [6]: Non-Toxic | Activity [7]: Active | Activity [8]: Toxic | IC50 [9]: > 25 µM | Activity [10]: Non-Toxic | mortality at 72 h [11]: 90% | Activity [12]: Non-Toxic | Activity [13]: Non-Toxic | Activity [14]: Non-Toxic | Activity [15]: Non-Toxic | Activity [16]: Active | Activity [17]: Non-Toxic | Activity [18]: Non-Toxic | Stability [19]: Stable | Activity [20]: Non-Toxic | AUC(0-inf) [21]: 88000 ng·h/mL | Activity [22]: Non-Toxic | Ratio [23]: 13% | Drug metabolism [24]: Metabolite_Notdetected | Activity [25]: Non-Toxic | IC50 [26]: 11.2 µM | Activity [27]: Non-Toxic | MRT last [28]: 3.8 h | Drug metabolism [29]: Metabolite_Notdetected | half-life [30]: 4.7 h | Activity [31]: Non-Toxic | Activity [32]: Non-Toxic | CC50 [33]: 0.027 µM | Activity [34]: Non-Toxic | Stability [35]: Unstable | C0 [36]: 11000 ng/mL | Activity [37]: Toxic | Activity [38]: Toxic | Stability [39]: Stable | Activity [40]: Non-Toxic | Activity [41]: Non-Toxic | Drug metabolism [42]: Metabolite_Notdetected
